Results as given in US20080200467A1, “SOLUBLE EPOXIDE HYDROLASE INHIBITORS” (Arete Therapeutics, Inc., priority 2006, published 2008).

These compounds were tested on soluble epoxide hydrolase (sEH) (assay: Fluorescent Assay for Mouse and Human Soluble Epoxide Hydrolase (CMNPC substrate)). Settings: Concentration 50 nM.
Assay type: biochemical
From the text: Fluorescent Assay for Mouse and Human Soluble Epoxide Hydrolase Recombinant mouse sEH (MsEH) and human sEH (HsEH) were produced in a baculovirus expression system as previously reported. Grant et al., J. Biol. Chem., 268:17628-17633 (1993); Beetham et al., Arch. Biochem. Biophys., 305:197-201 (1993). The expressed proteins were purified from cell lysate by affinity chromatography. Wixtrom et al., Anal. Biochem., 169:71-80 (1988). Protein concentration was quantified using the Pierce BCA assay using bovine serum albumin as the calibrating standard. The preparations were at least 97% pure as judged by SDS-PAGE and scanning densitometry. They contained no detectable esterase or glutathione transferase activity which can interfere with the assay. The assay was also evaluated with similar results in crude cell lysates or homogenate of tissues. The IC50s for each inhibitor were according to the following procedure: [drawing 218] […] Jones P. D. et. al.; Analytical Biochemistry 2005; 343: pp. 66-75) Bis/Tris HCl 25 mM pH 7.0 containing 0.1 mg/mL of BSA (buffer […] at 0.25 mM in DMSO. Mother solution of enzyme in buffer A (Mouse sEH at 6 μg/mL and Human sEH at 5 μg/mL). Inhibitor dissolved in DMSO at the appropriate concentration. In a black 96 well plate, fill all the wells with 150 μL of buffer A. Add 2 μL of DMSO in well A2 and A3, and then add 2 μL of inhibitor solution in A1 and A4 through A12. Add 150 μL of buffer A in row A, then mix several time and transfer 150 μL to row B. Repeat this operation up to row H. The 150 μL removed from row H is discarded. Add 20 μL of buffer A in column 1 and 2, then add 20 μL of enzyme solution to column 3 to 12. Incubate the plate for 5 minutes in the plate reader at 30° C. During incubation prepare the working solution of substrate by mixing 3.68 mL of buffer A (4×0.920 mL) with 266 μL (2×133 μL) of substrate solution). At t=0, add 30 μL of working substrate solution with multi-channel pipette labeled “Briggs 303” and start the reading ([S]final: 5 μM). Read with ex: 330 nm (20 nm) and em: 465 nm (20 nm) every 30 second for 10 minutes. The velocities are used to analyze and calculate the IC50s. Tables 4-6 show the activity of compounds when tested with the assay at 50, 500, 5000, 50000, and 500000 nM.

First: O=C(NCCc1ccc(OCc2ccccc2)cc1)C(O)CCC12CC3CC(CC(C3)C1)C2 (stereo not drawn) [Compound 129, 4-Adamantan-1-yl-N-[2-(4-benzyloxy-phenyl)-ethyl]-2-hydroxy-butyramide]
Second: O=C(NC1CCN(S(=O)(=O)c2ccc(Cl)cc2)CC1)C(O)C12CC3CC(CC(C3)C1)C2 (stereo not drawn) [Compound 149, N-(1-(4-Chlorophenylsulfonyl)piperidin-4-yl)-2-adamantan-1-yl-2-hydroxyacetamide]
The “% Inhibition” value of the first is lower: 70% for the first, 95% for the second.

Same assay, conditions: Concentration 500 nM

Going from Cc1ccc(S(=O)(=O)N2CCC(CNC(=O)C(O)CC34CC5CC(CC(C5)C3)C4)CC2)cc1 (stereo not drawn) [Compound 122, 3-Adamantan-1-yl-2-hydroxy-N-[1-(toluene-4-sulfonyl)-piperidin-4-ylmethyl]-propionamide] to Cc1ccc(S(=O)(=O)N2CCC(NC(=O)C(O)CC34CC5CC(CC(C5)C3)C4)CC2)cc1 (stereo not drawn) [Compound 128, 3-Adamantan-1-yl-2-hydroxy-N-[1-(toluene-4-sulfonyl)-piperidin-4-yl]-propionamide], the “% Inhibition” value rises from 88% to 89%.

Going from Cc1ccc(S(=O)(=O)N2CCC(NC(=O)C(O)C34CC5CC(CC(C5)C3)C4)CC2)cc1 (stereo not drawn) [Compound 124, 2-Adamantan-1-yl-2-hydroxy-N-[1-(toluene-4-sulfonyl)-piperidin-4-yl]-acetamide] to Cc1ccc(S(=O)(=O)N2CCC(NC(=O)C(O)CCC34CC5CC(CC(C5)C3)C4)CC2)cc1 (stereo not drawn) [Compound 138, 4-Adamantan-1-yl-2-hydroxy-N-(1-tosylpiperidin-4-yl)butanamide], the “% Inhibition” value falls from 80% to 79%.

Going from O=C(NC1CCN(S(=O)(=O)c2cccc(C(F)(F)F)c2)CC1)C(O)CC12CC3CC(CC(C3)C1)C2 (stereo not drawn) [Compound 133, 3-Adamantan-1-yl-2-hydroxy-N-(1-(3-(trifluoromethyl)phenylsulfonyl)piperidin-4-yl)propanamide] to Cc1ccc(S(=O)(=O)N2CCC(NC(=O)C(O)CCC3CCCCC3)CC2)cc1 (stereo not drawn) [Compound 140, 4-Cyclohexyl-2-hydroxy-N-(1-tosylpiperidin-4-yl)butanamide], the “% Inhibition” value falls from 83% to 78%.

COC(=O)CCCCCCCCCCCNC(=O)C(O)c1ccc(C(F)(F)F)cc1 (stereo not drawn) [Compound 158, Methyl 12-(2-hydroxy-2-(4-(trifluoromethyl)phenyl)acetamido)dodecanoate] was tested, and the “% Inhibition” value was 72%.

Same assay, conditions: Concentration 5000 nM

First: COc1ccc(C(O)C(=O)NCC23CC4CC(CC(C4)C2)C3)cc1 (stereo not drawn) [Compound 120, N-Adamantan-1-ylmethyl-2-hydroxy-2-(4-methoxy-phenyl)-acetamide]
Second: O=C(NCC12CC3CC(CC(C3)C1)C2)C(O)c1ccc(C(F)(F)F)cc1 (stereo not drawn) [Compound 121, N-Adamantan-1-ylmethyl-2-hydroxy-2-(4-trifluoromethyl-phenyl)-acetamide]
The “% Inhibition” value of the first is lower: 79% for the first, 91% for the second.

First: O=C(NC1CCN(S(=O)(=O)c2cccc(C(F)(F)F)c2)CC1)C(O)C12CC3CC(CC(C3)C1)C2 (stereo not drawn) [Compound 123, 2-Adamantan-1-yl-2-hydroxy-N-[1-(3-trifluoromethyl-benzenesulfonyl)-piperidin-4-yl]-acetamide]
Second: Cc1ccc(S(=O)(=O)N2CCC(CNC(=O)C(O)C34CC5CC(CC(C5)C3)C4)CC2)cc1 (stereo not drawn) [Compound 127, 2-Adamantan-1-yl-2-hydroxy-N-[1-(toluene-4-sulfonyl)-piperidin-4-ylmethyl]-acetamide]
The “% Inhibition” value of the first is higher: 98% for the first, 84% for the second.

Compared with O=C(NCc1ccc(OCc2ccccc2)cc1)C(O)CC12CC3CC(CC(C3)C1)C2 (stereo not drawn) [Compound 125, 3-Adamantan-1-yl-N-(4-benzyloxy-benzyl)-2-hydroxy-propionamide], O=C(NCc1ccc(OCc2ccccc2)cc1)C(O)CCC12CC3CC(CC(C3)C1)C2 (stereo not drawn) [Compound 146, N-(4-(Benzyloxy)benzyl)-4-adamantyl-2-hydroxybutanamide] is lower in “% Inhibition” value: 98% for the first, 73% for the second.

First: O=C(Nc1cccc(OCc2ccccc2)c1)C(O)CC1CCCCC1 (stereo not drawn) [Compound 126, N-(3-Benzyloxy-phenyl)-3-cyclohexyl-2-hydroxy-propionamide]
Second: O=C(NCCc1ccc(OCc2ccccc2)cc1)C(O)CCC1CCCCC1 (stereo not drawn) [Compound 141, N-(4-(Benzyloxy)phenethyl)-4-cyclohexyl-2-hydroxybutanamide]
The “% Inhibition” value of the first is lower: 78% for the first, 91% for the second.

Compared with O=C(Nc1ccc(OCc2ccccc2)cc1)C(O)CCc1ccc(C(F)(F)F)cc1 (stereo not drawn) [Compound 130], O=C(Nc1cccc(OCc2ccccc2)c1)C(O)CCc1ccc(C(F)(F)F)cc1 (stereo not drawn) [Compound 131] is higher in “% Inhibition” value: 89% for the first, 98% for the second.

First: O=C(NCc1ccc(OCc2ccccc2)cc1)C(O)C12CC3CC(CC(C3)C1)C2 (stereo not drawn) [Compound 134, N-(4-(Benzyloxy)benzyl)-2-adamantan-1-yl-2-hydroxyacetamide]
Second: O=C(NCCc1ccc(OCc2ccccc2)cc1)C(O)C12CC3CC(CC(C3)C1)C2 (stereo not drawn) [Compound 150, N-(4-(Benzyloxy)phenethyl)-2-adamantyl-2-hydroxyacetamide]
The “% Inhibition” value of the first is lower: 83% for the first, 87% for the second.

First: Cc1ccc(S(=O)(=O)N2CCC(NC(=O)C(O)CC3CCCCC3)CC2)cc1 (stereo not drawn) [Compound 135, 3-Cyclohexyl-2-hydroxy-N-(1-tosylpiperidin-4-yl)propanamide]
Second: Cc1ccc(S(=O)(=O)N2CCC(NC(=O)C(O)C3CCCCC3)CC2)cc1 (stereo not drawn) [Compound 137, 2-Cyclohexyl-2-hydroxy-N-(1-tosylpiperidin-4-yl)acetamide]
The “% Inhibition” value of the first is higher: 89% for the first, 82% for the second.

Compared with Cc1ccc(S(=O)(=O)N2CCC(NC(=O)C(O)CCc3ccc(C(F)(F)F)cc3)CC2)cc1 (stereo not drawn) [Compound 136, 2-Hydroxy-N-(1-tosylpiperidin-4-yl)-4-(4-(trifluoromethyl)phenyl)butanamide], O=C(NC1CCN(S(=O)(=O)c2ccc(Cl)cc2)CC1)C(O)CCC12CC3CC(CC(C3)C1)C2 (stereo not drawn) [Compound 152, N-(1-(4-Chlorophenylsulfonyl)piperidin-4-yl)-4-adamantyl-2-hydroxybutanamide] is higher in “% Inhibition” value: 83% for the first, 98% for the second.

First: O=C(NCCc1ccc(OCc2ccccc2)cc1)C(O)CCc1ccc(C(F)(F)F)cc1 (stereo not drawn) [Compound 139, N-(4-(Benzyloxy)phenethyl)-2-hydroxy-4-(4-(trifluoromethyl)phenyl)butanamide]
Second: O=C(NCCc1ccc(OCc2ccccc2)cc1)C(O)CC12CC3CC(CC(C3)C1)C2 (stereo not drawn) [Compound 147, N-(4-(Benzyloxy)phenethyl)-3-adamantan-1-yl-2-hydroxypropanamide]
The “% Inhibition” value of the first is lower: 70% for the first, 93% for the second.

First: O=C(Nc1ccc(OCc2ccccc2)cc1)C(O)CCC12CC3CC(CC(C3)C1)C2 (stereo not drawn) [Compound 143, N-(4-(Benzyloxy)phenyl)-4-adamantan-1-yl-2-hydroxybutanamide]
Second: O=C(NCCc1ccc(Oc2ccccc2)cc1)C(O)CCC12CC3CC(CC(C3)C1)C2 (stereo not drawn) [Compound 151, 4-Adamantan-1-yl-2-hydroxy-N-(4-phenoxyphenethyl)butanamide]
The “% Inhibition” value of the first is higher: 99% for the first, 90% for the second.

Compared with O=C(NCCc1ccc(F)cc1)C(O)CCC12CC3CC(CC(C3)C1)C2 (stereo not drawn) [Compound 145, 4-Adamantan-1-yl-N-(4-fluorophenethyl)-2-hydroxybutanamide], CNS(=O)(=O)c1ccc(CCNC(=O)C(O)CCC23CC4CC(CC(C4)C2)C3)cc1 (stereo not drawn) [Compound 156, 4-Adamantan-1-yl-2-hydroxy-N-(4-(N-methylsulfamoyl)phenethyl)butanamide] is lower in “% Inhibition” value: 95% for the first, 79% for the second.

Compared with O=C(NC1CCN(S(=O)(=O)c2ccc(Cl)cc2)CC1)C(O)CC12CC3CC(CC(C3)C1)C2 (stereo not drawn) [Compound 148, N-(1-(4-Chlorophenylsulfonyl)piperidin-4-yl)-3-adamantan-1-yl-2-hydroxypropanamide], O=C(O)c1ccc(Oc2ccc(CCNC(=O)C(O)CCC34CC5CC(CC(C5)C3)C4)cc2)cc1 (stereo not drawn) [Compound 154, 4-(4-(2-(4-Adamantan-1-yl-2-hydroxybutanamido)ethyl)phenoxy)benzoic acid] is higher in “% Inhibition” value: 76% for the first, 81% for the second.

Same assay, conditions: Concentration 50000 nM

Going from O=C(Nc1ccc(OCc2ccccc2)cc1)C(O)CC1CCCCC1 (stereo not drawn) [Compound 132, N-(4-(Benzyloxy)phenyl)-3-cyclohexyl-2-hydroxypropanamide] to O=C(NCCc1ccc(OCc2ccccc2)cc1)C(O)Cc1ccc(C(F)(F)F)cc1 (stereo not drawn) [Compound 144, N-(4-(Benzyloxy)phenethyl)-2-hydroxy-3-(4-(trifluoromethyl)phenyl)propanamide], the “% Inhibition” value rises from 65% to 66%.

For Cc1ccc(S(=O)(=O)N2CCC(NC(=O)C(O)Cc3ccc(C(F)(F)F)cc3)CC2)cc1 (stereo not drawn) [Compound 142, 2-Hydroxy-N-(1-tosylpiperidin-4-yl)-3-(4-(trifluoromethyl)phenyl)propanamide], the “% Inhibition” value was 84%.
